Assay results reported in patent publication US20080234232A1, “Methods and compositions for targeting AFAP” (priority 2007, published 2008).

Tests used:
PH1 domain of AFAP-110 [1] = biological target: T1, PH1 domain of AFAP-110 (Gallus gallus, UniProt Q90738); assay: Lipid binding assay (Far Western), GST-PH1; settings: 0.5 μg/ml fusion protein, lipids spotted on membrane
T1 construct: AFAP-110 contains two PH domains, one amino terminal (PH1) and the other carboxy terminal (PH2); made in house; host or cells: bacteria
T1 sequence (Q90738 153-249 limits assumed): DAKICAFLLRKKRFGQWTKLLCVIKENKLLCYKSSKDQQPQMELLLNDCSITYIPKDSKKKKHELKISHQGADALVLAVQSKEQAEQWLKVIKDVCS
Procedure: FIG. 5: The phospholipid binding properties of the PH domains of AFAP-110. A) Pleckstrin homology fusion proteins, GST-PH1, GST-PH2 and GST-DAPP1, were purified from bacteria by affinity chromatography. Phospholipids were spotted onto PVDF membranes as described in the methods section. The membranes were incubated overnight with 0.5 μg/ml • GST-PH1, GST-PH2 or GST-DAPP1. Washed membranes were incubated with anti-GST antibody and exposed to film.
B) Pleckstrin homology fusion protein, GST-PH1, was purified from bacteria by affinity chromatography. Two-fold changes in concentration (1.6 pg-100.0 pg) of phospholipids were spotted onto PVDF membranes as described in the methods section. The PIP arrays were incubated with 0.5 μg/ml fusion protein and probed with anti-GST antibody.
Pleckstrin homology (PH) fusion proteins GST-PH1, GST-PH2 and GST-DAPP1, were purified from bacteria by affinity chromatography. A Far Western Blot procedure was used for detecting the fusion protein binding to nitrocellulose immobilized phospholipids (Stevenson, J. Met. al., 1998); PIP strips and PIP arrays were purchased from Echelon, Inc. Overlay assays measured the relative amounts of GST-tagged fusion protein bound to spotted phospholipids. A plasmid encoding GST-DAPP1 previously shown to bind Ptdlns-3,4-P2 and Ptdlns-3,4,5-P3 (Dowler, S. et. al., 1999) was used as a control, kindly provided by Mark Lemmon (Lemmon, M. A., 2003). The membranes were wetted with methanol and then transferred to blocking solution composed of 3% BSA in TBS containing 1% Tween-20 (TBS-T) for 1 hour at 4° C. Membranes were incubated with 0.5 μg/ml each fusion proteins in TBS-T overnight at 4° C. Following incubation, membranes were rinsed three times with TBS-T, washed for 5 minutes and incubated at 4° C. for 1 hour with anti-GST antibody (1:20000 in TBS-T). Following the standard wash procedure, membranes were incubated at 4° C. for 30 minutes with peroxidase-conjugated secondary antibody (1:30000 in TBS-T). The washed membranes were incubated with chemiluminescence reagent and exposed to X-ray film.

PH1 domain of AFAP-110 [2] = biological target: T1, PH1 domain of AFAP-110; assay: Lipid sedimentation assay, GST-PH1; type: binding; settings: PC vesicles with lipid 19:1 (PC:PS 7:3), 0.025 mM GST fusion protein
Procedure: E) Lipid sedimentation assay was performed using pleckstrin homology fusion protein GST-PH1 as described in the methods sections. The GST-PH1 fusion protein has the capacity to co-sediment with several lipids containing vesicles as indicated in the pellet (P). Soluble fractions (S) containing unbound GST-PH1 purified fusion proteins were resolved by SDS-PAGE and detected by Coomassie stain.
A sedimentation assay was used to detect PH domain protein association with membrane phospholipids. Phospholipid stock solutions: 1 mg/ml L-α-Ptdlns-4-P, 1.0 mg/ml 1,2-dipalmitoyl-sn-glycero-3-Ptdlns-3-P, 0.1 mg/ml 1,2-dioleoyl-sn-glycero-3-Ptdlns-3,4-P2, and 1 mg/ml L-α-Ptdlns-4,5-P2 in chloroform:methanol:water (60:30:4). However, 10 mg/ml L-α-phosphatidylinositol, 0.1 mg/ml L-α Ptdlns-3-P, 0.2 mg/ml L-α-Ptdlns-3,4,5-P3, 10 mg/ml L-α-phosphatidylserine, and 10 mg/ml L-α-phosphatidylcholine in chloroform neat. All lipid stocks were purged with dry N2 and stored −20° C. The lipid vesicles were prepared as follows utilizing a sonication method. Briefly, in a heavy walled tube, PC and another stock phospholipid (e.g. Ptdlns, Ptdlns-3-P, Ptdlns-4-P, Ptdlns-3,4-P2, Ptdlns-3,5-P2, Ptdlns-3,4,5-P3, or PC) were combined in a 19:1 molar ratio; PC and PS were combined in a 7:3 molar ratio. Lipids were dried with a stream of N2 and traces of solvent were removed by vacuum and resuspended to 5.2 mM PC in buffer B [10 mM HEPES, pH 7.5, 50 mM KCl, 0.5 mM EGTA, and 1.0 mM MgCl2]. The resulting phospholipid sheets were sonicated to form vesicles. Samples were prepared to contain 1.7 mM vesicle PC and 0.025 mM recombinant GST fusion protein (DAPP1 or PH1) in buffer B. Samples were incubated 60 min and centrifuged with a Beckman Airfuge for 15 min at room temperature. 16% of the supernatant and 100% of the pellet from each sample was used for analysis by Laemmli method of SDS polyacrylamide gel electrophoresis. The gels were stained with SYPRO Orange or Coomassie Blue to visualize the proteins.

[3] = test system: AFAP-110 colocalization with cSrc and cSrc activation; assay: Immunofluorescence: PMA-induced colocalization of AFAP-110 with cSrc and cSrc activation in mouse embryo fibroblasts; type: cell-based; settings: 100 nM PMA 15 min
Procedure: FIG. 1: LY294002 blocks PMA-induced colocalization between AFAP-110 and cSrc, and subsequent cSrc activation. A) SYF cells transiently co-expressing GFP-AFAP-110 and cSrc were untreated (panels a-d), treated with 100 nM PMA for 15 minutes (panels e-h), or treated with PMA and either 6 μM bisindolylmaleimide (panels i-I), 10 μM LY294002 (panels m-p) or 50 nM Wortmannin (panels q-t). Fixed cells were immunolabeled with avian specific cSrc antibody, EC10 (1:500), and phospho-Src-family (Tyr416) (1:250) as described in the methods section. Secondary antibodies used were Atexa 546 anti-mouse for EC10 and Alexa 647 anti-rabbit for phospho-Src-family (Tyr416). A merged image was generated to determine colocalization between AFAP-110 and cSrc. Bars represent 20 μM.
D) Knockout MEFs (p85−/−) were transfected with GFP-AFAP-110 and cSrc. Fixed cells were immunolabeled with EC10 (1:500) and phospho-Src-family (Tyr416) (1:250) as described in the methods section. Secondary antibodies used were Alexa 546 anti-mouse for EC10 and Alexa 647 anti-rabbit for phospho-Src-family (Tyr416). Cells treated with 100 riM PMA for 15 minutes (panels e-h). Images were merged to determine colocalization of cSrc and GFP-AFAP-110. Bars represent 20 μm. Mouse embryo fibroblast cells that express the p85α isoform of the PI3K regulatory subunit (p85α+/+) were transfected with GFP-AFAP-110 and cSrc. Fixed cells were immunolabeled with EC10 (1:500) and phospho-Src-family (Tyr416) (1:250) as described in the methods section. Secondary antibodies used were Alexa 546 anti-mouse for EC10 and Alexa 647 anti-rabbit for phospho-Src-family (Tyr416). Images were merged to determine colocalization of cSrc and GFP-AFAP-110. Bars represent 20 μm.
(§1) SYF, SYF/cSrc, p85α+/+ and p85−/− cells were cultured in standard culture media. Transient transfections of SYF, SYF/cSrc, p85α+/+ cells for immunofluorescence were carried out using LipofectAMINE™ Reagent (Invitrogen) as per manufacturer's protocol. Briefly, Approximately 5.0-8.0×10^4 cells per well were transfected at 50-70% confluent on coverstips with 2-4 μg of plasmid DNA and incubated for 3-4 hours. Thirty-six hours after transfection, cells were serum starved for 12 hours, treated, and subsequently fixed and permeablized as previously described (Qian, Y. et. al., 1998). Cells were treated with a PKC activator, 100 nM PMA for 5 or 15 minutes or in combination with the following pretreatments; a PKC inhibitor, 6 μM bisindolylmaleimide [I] for six hours; or PI3K inhibitor, 10 μM LY294002 for six hours; 50 nM Wortmannin for 30 minutes; and/or a Src family inhibitor, 5 μM PP1 for six hours. For actin labeling, a 1:500 dilution of TRITC-phalloidin was used as labeled in the figures. Primary antibody concentrations used were diluted in 5% Bovine Serum Albumin (BSA) dissolved in 1× phosphate-buffered saline (PBS): EC10 mAb-1:500; Phospho-Src Family (Y416) pAb-1:250; Anti-PI-3,4,5-P3 mAb-1:100; Anti-AFAP-110 (F1)pAb-1:1000; Anti-cSrc pAb-1:500; Anti-flag-1:1000. All fluorescent secondary and phalloidin antibodies were diluted 1:200 in 5% BSA, and are labeled according to figure legends. Cells were washed and mounted on slides with Fluoromount-G (Fisher). A Zeiss LSM 510 confocal microscope was used to scan images of about 1 μM in thickness. To prevent cross-contamination between the different fluorochromes, each channel was imaged sequentially using the multitrack recording module before merging the images. For all figures, representative cells are shown (>100 cells examined per image shown).
We utilized SYF cell lines as a model system, mouse embryo fibroblasts engineered to contain null mutations in the c-src,fyn, and c-yes genes (Klinghoffer, R. A. et. al., 1999). The cells were transiently co-transfected with constructs that encode cSrc and GFP-tagged AFAP-110, as previously described (Gatesman, A. et. al., 2004). […]

cSrc = assay: Immunofluorescence: translocation of cSrc from the perinuclear region to the cell periphery; type: cell-based, mouse; settings: SYF cells, 100 nM PMA with 6 μM bisindolylmaleimide or 10 μM LY
Procedure: FIG. 2: Inhibition of PI3K blocks translocation of cSrc from the perinuclear region of mouse embryo fibroblast in response to PMA treatment. SYF and p85−/− null cells were transiently transfected with cSrc and labeled for avian cSrc using EC10, an avian-specific monoclonal antibody (1:500). EC10 was visualized with anti-mouse Atexa Fluor 488 (false colored red for consistency). Cells treated with 100 nM PMA (panel b) induced translocation of cSrc to the cell periphery as indicated by the arrows. However, cells treated with 100 nM PMA in conjunction with 6 μM bisindolylmaleimide (panel c) or 10 μM LY (panel d) blocked the translocation of cSrc as indicated by the arrows. […] (n=nucleus) Bars represent 20 μM.
as §1, with “All fluorescent secondary and phalloidin antibodies were diluted 1:200 in 5% BSA, and are labeled according to figure legends. Cells were washed and mounted on slides with Fluoromount-G (Fisher). A Zeiss LSM 510 confocal microscope was used to scan images of about 1 μM in thickness. To prevent cross-contamination between the different fluorochromes, each channel was imaged sequentially using the multitrack recording module before merging the images. For all figures, representative cells are shown (>100 cells examined per image shown).” left out

PI3K = assay: Immunofluorescence of Ptdlns-3,4,5-P3 production in SYF/cSrc cells; type: cell-based, mouse; settings: for PMA-induced Ptdlns-3,4,5-P3 production: 100 nM PMA with 6 μM bisindolylmaleimide [I], 50 nM wortmannin, LY294002 or 5 μM PP1
Procedure: SYF/cSrc cells were serum-starved for 24 hours. Cells stimulated with 10% serum (panels c-f), 100 nM PMA for 5 (panels g-h), or 15 minutes (panels i-j); as well as treated with 100 nM PMA in combination with 6 μM bisindolylmaleimide [I] (panels k-I) or 50 nM wortmannin (panels m-n). Cells treated with 100 nM PMA in combination with 5 μM PP1 (panel o-p) and Ptdlns-3,4,5-P3 levels evaluated. Cells were immunolabeled with a PI-3,4,5-P3-specific antibody (Echelon, Inc.;1:100) and TRITC-phalloidin (1:500). Secondary antibody for anti-PI-3,4,5-P3 (1:100) was Alexa IgM 647 anti-mouse (1:200). Bars represent 20 μm.
as §1
Ptdlns-3,4,5-P3 production was measured using the anti-Ptdlns-3,4,5-P3 antibody (Echelon, inc.) for analysis by immunofluorescence and contrasted with stress filament integrity, measured using TRITC-phalloidin as previously described (Chen, R. et. al., 2002; Hama, H. et. al., 2004). SYF/cSrc cells were left untreated or treated with serum as controls for PI3K activation. […] In addition, SYF/cSrc cells were stimulated with PMA for 5 or 15 minutes.

[4] = SYF cells co-expressing GFP-AFAP-110 and cSrc, pretreatment 6 μM bisindolylmaleimide, 10 μM LY294002 or 50 nM Wortmannin

binding of GST-PH1 to immobilized phospholipid (far western) (PH1 domain of AFAP-110 [1])	binding (co-sedimentation) of GST-PH1 to lipid vesicles containing the lipid (PH1 domain of AFAP-110 [2])	Compound	other results
not recognized	–	Lysophosphatidic acid	–
strong binding	did not bind	CCCCCCCCCCCCCCCC(=O)OC[C@H](COP(=O)(O)O[C@@H]1[C@H](O)[C@H](OP(=O)(O)O)[C@@H](O)[C@H](O)[C@H]1O)OC(=O)CCCCCCCCCCCCCCC [Ptdlns-3-P, phosphatidylinositol-3-phosphate]	–
did not bind	–	phosphatidylinositol	–

Continued, compound first:

Compound	binding of GST-PH1 to immobilized phospholipid (far western) (PH1 domain of AFAP-110 [1])	binding (co-sedimentation) of GST-PH1 to lipid vesicles containing the lipid (PH1 domain of AFAP-110 [2])	other results
phosphatidylinositol-5-phosphate [Ptdlns-5-P]	strong binding	has the capacity to bind	–
CN(C)CCCn1cc(C2=C(c3c[nH]c4ccccc34)C(=O)NC2=O)c2ccccc21 [bisindolylmaleimide [I]]	–	–	PMA-induced cSrc activation (phospho-Src-family Tyr416) [3, 4]: blocked; PMA-induced colocalization of AFAP-110 with cSrc [3, 4]: blocked; PMA-induced associated morphological changes ([3]; SYF cells, pretreatment 6 μM bisindolylmaleimide or 10 μM LY294002): blocked; PMA-induced translocation of cSrc from the perinuclear region to the cell periphery (cSrc): blocked; PMA-induced Ptdlns-3,4,5-P3 production (PI3K): blocked
phosphatidylserine	had the capacity to recognize	has the capacity to bind	–
phosphatidylinositol-4-phosphate [Ptdlns-4-P]	strong binding	has the capacity to bind	–
phosphatidic acid	better than any other phospholipid analyzed	–	–
Phosphatidylethanolamine	not recognized	–	–
Cc1ccc(-c2nn(C(C)(C)C)c3ncnc(N)c23)cc1 [PP1]	–	–	PMA-directed changes in stress filaments and cell shape (PI3K; 100 nM PMA with 5 μM PP1): impeded; PMA-induced Ptdlns-3,4,5-P3 production (PI3K): did not block
